Read-outs that look alike come from different tables or passages of the source.
Columns and labels:
Assay type in all cases: cell-based
OE33 cells = assay: Inhibitory activity on cancer cell growth (CCK-8, 72 h), OE33 cells; settings: Homo sapiens, OE33, 72 h, human esophageal cancer cells OE33, 72 h incubation
Method: (§1) Human esophageal cancer cells OE33, human breast adenocarcinoma cells SK-BR-3 and human gastric cancer cells NCI-N87 were cultured in RPMI1640 (Cellmax) supplemented with 10% fetal bovine serum (Cellmax) respectively. Cells in the exponential growth phase were diluted to a concentration of 1×10^5cells/mL by culture medium and added to 96-well cell culture plates at 100µL per well, then incubated overnight in a 37°C incubator with 5% CO2. On the following day, the test compounds and control compounds were diluted to concentrations of 10000 nM, 2000 nM, 400 nM, 80 nM, 16 nM, 3.2 nM, 0.64 nM, and 0.13 nM by culture medium and added to the 96-well cell culture plates at 2µL per well, with three replicate wells for each concentration. Negative control and blank control groups without the addition of compounds were supplemented with 2µL of the dilution liquid per well. After the addition of the compounds, the plates were returned to the 37°C incubator with 5% CO2 to continue incubation for 72 h. After incubation, the cell culture plates were removed, and the culture medium was aspirated using a pipette. Then, 100µL of culture medium containing 10% CCK-8 was added to each well, and the plates were incubated at 37°C for 3 h. After incubation, the plates were removed, kept in the dark, and placed in ELISA plate. Absorbance was measured at 630nm as the reference wavelength and 450nm as the test wavelength. The IC50 values (Tables 1-3) were calculated using the four-parameter logistic regression method in GraphPad, based on the absorbance values. SN38 (7-ethyl-10-hydroxycamptothecin) and 10CPT (10-hydroxycamptothecin) were used as control compounds. For the IC50 values, wherein "++++" indicates an IC50 < 50 nM; "+++" indicates an IC50 between 50 nM and 100 nM; "++" indicates an IC50 between 100 nM and 500 nM; and "+" indicates an IC50 > 500 nM. Table 1: Inhibitory activity of compounds to inhibit the growth of OE33 cells

SK-BR-3 cells = assay: Inhibitory activity on cancer cell growth (CCK-8, 72 h), SK-BR-3 cells; settings: Homo sapiens, SK-BR-3, 72 h, human breast adenocarcinoma cells SK-BR-3, 72 h incubation
Method: as §1

NCI-N87 cells = assay: Inhibitory activity on cancer cell growth (CCK-8, 72 h), NCI-N87 cells; settings: Homo sapiens, NCI-N87, 72 h, human gastric cancer cells NCI-N87, 72 h incubation
Method: as §1

[1] = numeric value or bound, read-out: IC50

Row | SMILES | IC50 (OE33 cells; read-out: IC50) | IC50 (SK-BR-3 cells; read-out: IC50) | IC50 (NCI-N87 cells; read-out: IC50) | IC50 (OE33 cells; [1]) | IC50 (SK-BR-3 cells; bound stated, read-out: IC50) | IC50 (NCI-N87 cells; bound stated, read-out: IC50) | IC50 (OE33 cells) | IC50 (OE33 cells; numeric value or bound) | IC50 (SK-BR-3 cells) | IC50 (SK-BR-3 cells; bound stated) | IC50 (NCI-N87 cells) | IC50 (NCI-N87 cells; bound stated)
1 | CC[C@@]1(O)C(=O)OCc2c1cc1n(c2=O)Cc2cc3c(CN4CCN(C(=O)OC)CC4)c(O)ccc3nc2-1 [Compound 9, 9-(1-(4-methoxycarbonylpiperazine))methyl-10-hydroxycamptothecin] | 100 to 500 nM | 50 to 100 nM | < 50 nM | – | – | – | – | – | – | – | – | –
2 | CC[C@@]1(O)C(=O)OCc2c1cc1n(c2=O)Cc2cc3c(CN(C)C(C)C)c(O)ccc3nc2-1 [Compound 10, 9-(N-methyl-N-isopropylamino)methyl-10-hydroxycamptothecin] | 50 to 100 nM | 50 to 100 nM | < 50 nM | < 100 nM | < 100 nM | < 100 nM | – | – | – | – | – | –
3 | CC[C@@]1(O)C(=O)OCc2c1cc1n(c2=O)Cc2cc3c(CN(C)C4CC4)c(O)ccc3nc2-1 [Compound 17, 9-(N-methyl-N-cyclopropylamine)methyl-10-hydroxycamptothecin] | 50 to 100 nM | 50 to 100 nM | < 50 nM | < 100 nM | < 100 nM | < 100 nM | – | – | – | – | – | –
4 | CCN(C)Cc1c(O)ccc2nc3c(cc12)Cn1c-3cc2c(c1=O)COC(=O)[C@]2(O)CC [Compound 19, 9-(N-methylethylamine)methyl-10-hydroxycamptothecin] | – | – | – | – | – | – | 50 to 100 nM | < 100 nM | 50 to 100 nM | < 100 nM | < 50 nM | < 100 nM

Reference: patent EP4541797A1, “CAMPTOTHECIN DERIVATIVE, METHOD FOR PREPARING SAME, AND USE THEREOF” (Hangzhou Adcoris Biopharma Co., Ltd, priority 2022, dated 2024)
